Earlier results as cited in patent US20180256601A1, “URSODEOXYCHOLIC ACID AND BRAIN DISORDERS” (priority 2015, published 2018).
Entries after “also recorded” stand apart in the source; their conditions may differ.

Legend:
[1] = tested on: ALS patients; details: 1 g twice daily; 17 ALS patients
[2] = tested on: prion disease; details: Cortez et al, 2015
[3] = tested on: cellular model of HD; details: coincubation with 3-NP
[4] = worldwide postmarketing and clinical experience
[5] = in vivo
[6] = tested on: PBC patients; details: sixty PBC patients
[7] = oral; 450 mg UDCA, or complex containing 426 mg UDCA
[8] = not given; remark: listed apart in the source
[9] = post approval use
[10] = in divided doses (Parry et al, 2010)
[11] = tested on: cell model of ALS; details: cell model of ALS (Vaz et al, 2015)

C[C@H](CCC(=O)NCCS(=O)(=O)O)[C@H]1CC[C@H]2[C@@H]3[C@@H](O)C[C@@H]4C[C@H](O)CC[C@]4(C)[C@H]3CC[C@]12C [TUDCA, tauroursodeoxycholic acid]
Amyotrophic Lateral Sclerosis Functional Rating Scale Revised [1]: significant improvements | therapeutic effects in prion disease [2]: variety of therapeutic effects | mitochondrial cytochrome c release and mitochondrial membrane alterations [3]: prevented | reduction in apoptosis [3]: ~80%

C[C@H](CCC(=O)O)[C@H]1CC[C@H]2[C@@H]3[C@@H](O)C[C@@H]4C[C@H](O)CC[C@]4(C)[C@H]3CC[C@]12C [UDCA, Ursodeoxycholic Acid]
frequency of common adverse reactions: abdominal discomfort, abdominal pain, alopecia, diarrhea, nausea, pruritus, rash [4]: ≥ 1% | percentage of UDCA in the bile pool after administration of exogenous UDCA [5]: 55 to 60% | abdominal pain and asthenia [6]: 1 patient | anorexia [6]: 1 patient | dyspepsia [6]: 2 patients | esophagitis [6]: 1 patient | nausea [6]: 3 patients | patients who reported adverse reactions ([6]; seven patients, nine adverse reactions): 11.6% | Cmax [7]: 6100 ng/mL | t1/2(abs) [7]: 0.9 h | tmax [7]: 1.38 h | correlation between serum concentrations 1 hour after dosing and cerebrospinal fluid concentrations 2 hours after dosing (18 ALS patients (Parry et al, 2010)): strong statistically significant correlation | time of serum level peak (after oral administration): 30 to 50 min | blood-brain barrier crossing (in vivo): crosses the blood-brain barrier in a dose-dependent manner | elimination half-life ([8]; adults): 72 to 140 h | bile UDCA levels following discontinuation of therapy, as share of average steady state concentrations ([8]; in vivo): 5 to 10% | time to steady state concentrations ([8]; on average, from starting therapy): ≤ 3 weeks | fraction of oral dose excreted via the urine ([8]; oral): 1% | fraction of exogenous UDCA absorbed ([8]; oral delivery, passive diffusion by the proximal jejunum and ileum): ~90% | Adverse Reactions: Musculoskeletal and connective tissue disorders [9]: Myalgia | Adverse Reactions: Nervous system disorders [9]: dizziness, headache | Adverse Reactions: Respiratory, thoracic and mediastinal disorders [9]: Cough | Adverse Reactions: Gastrointestinal disorders ([9]; listed as ursodiol): abdominal discomfort,; also recorded: abdominal pain,; also recorded: constipation, diarrhea,; also recorded: dyspepsia, nausea,; also recorded: vomiting | Adverse Reactions: General disorders and administration site conditions ([9]; listed as ursodiol): malaise, peripheral; also recorded: edema, pyrexia | Adverse Reactions: Immune System Disorders ([9]; listed as ursodiol): Drug hypersensitivity; also recorded: edema, urticaria,; also recorded: laryngeal edema | Adverse Reactions: Skin and subcutaneous tissue disorder ([9]; listed as ursodiol): alopecia, pruritus, and rash | dose well tolerated without significant neurotoxic effects [10]: up to 50 mg/kg/day

C[C@H](CCC(=O)NCC(=O)O)[C@H]1CC[C@H]2[C@@H]3[C@@H](O)C[C@@H]4C[C@H](O)CC[C@]4(C)[C@H]3CC[C@]12C [GUDCA, glycoursodeoxycholic acid]
mitochondrial dysfunction, caspase-9 activation, matrix metalloproteinase activation, nitrogen oxide (NO) generation [11]: decrease
